US7691387B2, “Cinnamomi and poria composition, method to prepare same and uses thereof” (Jiangsu Kanion Pharmaceutical Co., Ltd, priority 2000, dated 2010)

Legend:
[1] = system: extra-corporeal platelet aggregation of rabbits; test: Extra-corporeal platelet aggregation of rabbit (ADP); assay type: cell-based; details: 0.3 Mg/ml
[2] = system: twisting responses of mice induced by acetic acid; test: Acetic acid twisting experiment; assay type: in vivo; details: positive control, 0.2 g/kg
Method: Randomly divide the animals into 5 groups. […] After the drug has been administered on the third day, celio-inject 0.5% acetic acid to the mice in groups. Observe and record the times of twisting of mice within 30 minutes. [formula]

[3] = system: platelet aggregation of rats; test: Platelet aggregation experiments of rats; assay type: in vivo, Wister rats; details: 0.1 g/kg once
Method: The drug concentration is 0.5 mg/ml. […] The drug concentration is 1 g/ml. […] The drug concentration is 1 g/ml. Experimental process: […] Half an hour after administering the drug on the fifth day, use ether to anaesthetize the rats. […] Administer a 0.1 g/kg aspirin once to the positive control group. Prepare platelet plasma according to the method explained previously. Do the aggregation experiments, and record the conditions of every group.

[4] = system: ear swelling of mice; test: Croton oil ear swelling of mice; assay type: in vivo, Kunming mice; details: 0.025 g/Kg, three days
Method: Preparation of drug: Put 12.5 g of extract of CCP in 100 ml of normal saline, and mix adequately. The drug concentration is […]. Put 25 g of extract of CCP in 100 ml of normal saline, and mix adequately. The drug concentration is 1 g/ml. Put 50 g of extract of CCP in 100 ml of normal saline, and mix adequately. The drug concentration is 2 g/ml. Put 12.5 g of the Bolus of Cinnamomi & Poria in 100 ml of normal saline, and mix adequately. The drug concentration is […]. Put 25 g of extract in 100 ml of normal saline, and mix adequately. The drug concentration is 1 g/ml. Put 50 g of extract in 100 ml of normal saline, and mix adequately. The drug concentration is 2g/ml. Put 0.1 g of Hydrocortisone in 100 ml of normal saline. The drug concentration is 1 mg/ml. Administer all three preparations (a total of seven different solutions) with 10 ml/kg.
Experimental method: According to their weight, randomly divide fifty male mice into eight groups. Administer different doses of the seven solutions mentioned above for three days and for the control group administer the normal saline of the same volume. After three days of administering the drug, besmear […] croton oil on both sides of every mouse's left ear (compare with right ear). […]

Structure (SMILES): CC(=O)Oc1ccccc1C(=O)O [Aspirin, Acetylsalicylic acid]
- Aggregation(%) [1]: 32.94 ± 1.68 %
- controlling rate of twisting times [2]: 61.08%
- Aggregation ratio [3]: 26.58 ± 10.58

Structure (SMILES): C[C@]12CCC(=O)C=C1CC[C@@H]1[C@@H]2[C@@H](O)C[C@@]2(C)[C@H]1CC[C@]2(O)C(=O)CO [Hydrocortisone]
- Average swelling degree [4]: 4.68 ± 3.43
